Measurements taken from publication PMC9667546, “Selective Inhibition of Bruton’s Tyrosine Kinase by a Designed Covalent Ligand Leads to Potent Therapeutic Efficacy in Blood Cancers Relative to Clinically Used Inhibitors” (ACS Pharmacology & Translational Science, 2022).
Like-named read-outs stand apart in the source and are kept apart here.

Key:
DoHH-2 cells (DLBCL) = test: Cell viability assay (CellTiter-Glo), DoHH-2; type: cell-based; details: Homo sapiens, 72 h, n = 3
Experimental: (§1) All cell lines were purchased from ATCC, except for DoHH-2 cells that were obtained from DSMZ. Cells were cultivated in complete DMEM supplemented with 10% (vol/vol) FBS (Gibco) and 1% of penicillin/streptomycin (Gibco). The cells were grown in a humidified atmosphere of 5% CO2 at 37°C, with the medium changed every other day.
(§2) Cells were inoculated at a density of 5000 cells/well. Serially diluted compounds (starting at 50 μM) were added 24 h later. The assay was performed in triplicates. After 72 h of incubation, cellular viability was assessed by CellTiter-Glo (Promega) according to the manufacturer’s instructions. The values were normalized with the vehicle (DMSO), and the IC50 was calculated using GraphPad Prism 8.

MOLM-13 cells (AML) = test: Cell viability assay (CellTiter-Glo), MOLM-13; type: cell-based; details: Homo sapiens, 72 h, n = 3
Experimental: as §1, §2

EGFR = target: T1, EGFR (Homo sapiens, UniProt P00533); test: NanoBRET in-cell target engagement, EGFR; type: binding; details: HEK296T cells, 1 h incubation, average of duplicates
T1 construct: host or cells: HEK296T (so in the source)
Experimental: (§3) In-cell target engagement was performed at Reaction Biology Corporation, using NanoBRET technology. Very briefly, HEK296T cells were transfected and treated in duplicate with JS25 for 1 h of incubation. The compound was diluted 10 times with 3-fold dilution, starting at 1 μM. Curve fits were performed only when the % NanoBret signal at the highest concentration of compounds was less than 55%. The IC50 values were determined using GraphPad Prism 8 ([…]).

BTK [1] = target: T2, BTK (Homo sapiens, UniProt Q06187); test: BTK degradation in Raji cells (Western blot); type: cell-based; set-up: endogenous in cells; host or cells: Raji cells (Burkitt's lymphoma); details: 10 μM
Experimental: Raji cells were inoculated at 0.5 × 10^6 cells/mL, and JS25 was added at a final concentration of 10 μM. At 0, 4, and 15 h of incubation, the cells were harvested, and the pellets were resuspended in lysis buffer (20 mM Tris–HCl, 150 mM NaCl, pH 8.0, 0.1% Triton X-100), supplemented with EDTA-free Protease Inhibitor Cocktail (Merck) and DNase I (Merck). The protein concentration was determined using the Pierce BCA Protein Assay Kit (Thermo Scientific). Western blot was performed with rabbit BTK antibody (1:1000; 3533, Cell Signaling Technology), mouse α-Tubulin antibody (1:5000; 5168, Merck), goat anti-rabbit IgG (H + L) secondary antibody HRP (1:7000; 65-6120, Invitrogen), and goat anti-mouse IgG (H + L) secondary antibody HRP (1:5000; 2-6520, Invitrogen).

BTK [2] = target: T2, BTK; test: NanoBRET in-cell target engagement, BTK; type: binding; set-up: purchased Promega Corporation V2941
Experimental: as §3

HBEC-5i cells = test: Cell viability assay (CellTiter-Glo), HBEC-5i; type: cell-based; details: Homo sapiens, 72 h, n = 3
Experimental: as §2
Human cerebral microvascular endothelial cells (HBEC-5i) were cultured as a monolayer on attachment factor protein solution (AF)-coated T-flasks (Gibco), using DMEM/F12 medium (Gibco), supplemented with 10% FBS, 1% penicillin/streptomycin, and 40.0 μg/mL endothelial cell growth supplement (ECGS, Sigma), according to the manufacturer’s instructions. The capacity of the compounds to cross the brain–blood barrier (BBB) was evaluated using an in vitro HBEC-5i cell model, as previously described.[29] Samples from the apical and basolateral sides were collected, and fluorescence intensity was measured using a Varioskan LUX multimode microplate reader. The retention was considered the difference between the initial fluorescence of compounds (100%) and the aggregated apical and basolateral fluorescence.

Raji cells (BL) = test: Cell viability assay (CellTiter-Glo), Raji; type: cell-based; details: Homo sapiens, 72 h, n = 3
Experimental: as §1, §2

JURKAT cells = test: Cell viability assay (CellTiter-Glo), JURKAT; type: cell-based; details: Homo sapiens, 72 h, n = 3
Experimental: as §1, §2

BTK [3] = target: T2, BTK; test: BTK inhibition kinetics (ADP-Glo kinase assay); type: biochemical; set-up: purchased Promega Corporation V2941
BLK = BLK (Homo sapiens, UniProt P51451); test: NanoBRET in-cell target engagement, BLK; type: binding; set-up: host or cells: HEK296T (so in the source)
Experimental: as §3

[4] = BTK preincubated with inhibitor 2–60 min, ATP 50 μM

Sequence of BLK (P51451 whole entry): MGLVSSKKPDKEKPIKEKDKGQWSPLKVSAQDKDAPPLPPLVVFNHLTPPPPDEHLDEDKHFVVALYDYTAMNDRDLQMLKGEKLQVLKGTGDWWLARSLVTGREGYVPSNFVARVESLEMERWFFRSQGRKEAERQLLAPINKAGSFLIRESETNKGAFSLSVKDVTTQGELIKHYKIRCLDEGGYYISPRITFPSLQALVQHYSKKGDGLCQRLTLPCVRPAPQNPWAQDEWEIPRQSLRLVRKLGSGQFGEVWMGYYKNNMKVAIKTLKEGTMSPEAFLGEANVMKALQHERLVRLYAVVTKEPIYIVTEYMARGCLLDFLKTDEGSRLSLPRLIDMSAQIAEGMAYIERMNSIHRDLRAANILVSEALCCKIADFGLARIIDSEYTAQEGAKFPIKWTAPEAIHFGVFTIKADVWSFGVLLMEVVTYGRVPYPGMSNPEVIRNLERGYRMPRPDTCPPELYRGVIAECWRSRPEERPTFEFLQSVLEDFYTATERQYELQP
T2 sequence (Q06187 whole entry): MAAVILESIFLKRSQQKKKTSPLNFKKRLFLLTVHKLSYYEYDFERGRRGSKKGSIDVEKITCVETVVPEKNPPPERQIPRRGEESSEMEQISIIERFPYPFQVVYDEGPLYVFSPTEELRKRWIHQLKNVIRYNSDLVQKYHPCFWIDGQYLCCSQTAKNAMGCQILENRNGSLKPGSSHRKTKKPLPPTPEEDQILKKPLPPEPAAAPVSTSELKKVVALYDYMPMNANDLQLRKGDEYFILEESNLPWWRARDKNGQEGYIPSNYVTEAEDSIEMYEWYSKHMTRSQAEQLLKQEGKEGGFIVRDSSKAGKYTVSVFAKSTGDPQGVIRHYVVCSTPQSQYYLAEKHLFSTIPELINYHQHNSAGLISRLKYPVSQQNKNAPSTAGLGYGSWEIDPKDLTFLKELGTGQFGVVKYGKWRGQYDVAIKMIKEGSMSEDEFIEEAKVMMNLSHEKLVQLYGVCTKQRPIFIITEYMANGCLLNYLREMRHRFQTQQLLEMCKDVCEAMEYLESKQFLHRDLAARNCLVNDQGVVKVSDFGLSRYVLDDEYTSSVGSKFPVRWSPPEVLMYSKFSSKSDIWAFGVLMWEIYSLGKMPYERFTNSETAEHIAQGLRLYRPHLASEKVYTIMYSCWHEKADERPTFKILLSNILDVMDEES
T1 sequence (P00533 25-1210): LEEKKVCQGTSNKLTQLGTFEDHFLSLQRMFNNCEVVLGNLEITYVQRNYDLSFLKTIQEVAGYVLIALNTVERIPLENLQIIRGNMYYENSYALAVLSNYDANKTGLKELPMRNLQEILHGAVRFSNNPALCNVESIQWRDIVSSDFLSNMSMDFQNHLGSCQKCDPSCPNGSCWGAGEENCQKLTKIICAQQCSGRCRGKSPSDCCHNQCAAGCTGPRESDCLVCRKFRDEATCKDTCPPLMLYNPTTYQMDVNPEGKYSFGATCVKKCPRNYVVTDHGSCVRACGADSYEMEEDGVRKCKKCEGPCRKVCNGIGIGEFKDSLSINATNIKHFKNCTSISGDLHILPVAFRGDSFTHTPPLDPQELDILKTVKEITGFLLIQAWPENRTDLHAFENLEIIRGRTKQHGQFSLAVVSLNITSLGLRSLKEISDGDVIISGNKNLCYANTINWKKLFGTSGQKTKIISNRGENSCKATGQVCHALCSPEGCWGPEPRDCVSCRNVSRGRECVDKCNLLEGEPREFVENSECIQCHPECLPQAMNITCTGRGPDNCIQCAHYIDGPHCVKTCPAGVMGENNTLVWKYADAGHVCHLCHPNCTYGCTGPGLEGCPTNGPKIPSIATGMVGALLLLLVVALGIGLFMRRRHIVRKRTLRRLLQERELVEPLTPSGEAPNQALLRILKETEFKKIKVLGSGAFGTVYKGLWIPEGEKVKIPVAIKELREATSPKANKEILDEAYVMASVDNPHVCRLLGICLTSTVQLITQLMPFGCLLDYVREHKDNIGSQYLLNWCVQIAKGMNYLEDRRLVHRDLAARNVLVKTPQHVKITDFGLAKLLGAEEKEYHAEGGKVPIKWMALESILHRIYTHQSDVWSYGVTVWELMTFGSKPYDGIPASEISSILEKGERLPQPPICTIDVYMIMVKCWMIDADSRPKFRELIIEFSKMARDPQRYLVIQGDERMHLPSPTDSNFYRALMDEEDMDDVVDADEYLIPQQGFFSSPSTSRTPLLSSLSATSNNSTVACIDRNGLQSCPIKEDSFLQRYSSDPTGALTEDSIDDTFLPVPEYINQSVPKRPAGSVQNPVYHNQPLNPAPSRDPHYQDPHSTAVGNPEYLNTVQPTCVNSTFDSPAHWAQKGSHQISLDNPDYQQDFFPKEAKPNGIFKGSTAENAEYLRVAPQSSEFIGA

Compound `C=CC(=O)Nc1cc(C)cc(-n2c(=O)ccc3cnc4ccc(-c5ccc(NS(C)(=O)=O)cc5)cc4c32)c1` [JS25] has an IC50 (DoHH-2 cells (DLBCL)) of 0.52 ± 0.02 µM, an IC50 (MOLM-13 cells (AML)) of roughly 0.51 µM and an IC50 (EGFR) greater than 3 µM. For the same compound, the BTK degradation (BTK [1]; 4 h) was “evident”, the BTK degradation (BTK [1]; 15 h) was “almost completed” and the IC50 (BTK [2]; HEK296T cells, 1 h incubation, average of duplicates, read-out: IC50 (M), BTK) was 2.85e-08 M. The “selectivity (kinase/BTK), BTK” value (BTK [2]; IC50 kinase/IC50 BTK) was 1, the IC50 (BTK [2]; NanoBRET value as given in text and Table S3, read-out: IC50, BTK) was 2.8e-08 M and the IC50 (HBEC-5i cells) was 23.4 ± 0.98 µM. For the same compound, the IC50 (Raji cells (BL)) was 2.3 µM, the IC50 (JURKAT cells) was 38.4 ± 0.07 µM and the “increase in the rate of protein inactivation compared to ibrutinib, acalabrutinib and BMX-IN-1” value (BTK [3]) was 8–200 fold. For the same compound, the “increased rate of inactivation (kinact/KI) relative to BMX-IN-1” value (BTK [3]) was roughly 18 fold, the “increased rate of inactivation (kinact/KI) relative to acalabrutinib” value (BTK [3]) was roughly 200 fold and the “increased rate of inactivation (kinact/KI) relative to ibrutinib” value (BTK [3]) was “approximately 8 fold”. The “kinact of JS25, fold faster compared with ibrutinib, acalabrutinib and BMX-IN-1” value (BTK [3]) was 10 fold, the Ki (BTK [3]; [4]) was 0.00077 ± 6e-05 µM and the kinact (BTK [3]; [4]) was 0.00668 s⁻¹. For the same compound, the kinact/KI (BTK [3]; [4]) was 8.72e+06 ± 1.02e+06 M⁻¹ s⁻¹, the “selectivity for BTK relative to BLK” value (BLK) was 100 fold and the IC50 (BLK; HEK296T cells, 1 h incubation, average of duplicates, read-out: IC50 (M), BLK) was 2.6e-06 M. For the same compound, the IC50 (BLK; NanoBRET value as given in Table S3, read-out: IC50, BLK) was roughly 3e-06 M.
